Experimental findings from ChEMBL document CHEMBL4177582, “Modifications of flexible nonyl chain and nucleobase head group of (+)-erythro-9-(2's-hydroxy-3's-nonyl)adenine [(+)-EHNA] as adenosine deaminase inhibitors” (Bioorg Med Chem, 2017) are described below.

Molecules are shown by their SMILES.

One series concerns the target T1, Adenosine deaminase (Bos taurus, UniProt P56658).
T1 sequence (P56658 whole entry): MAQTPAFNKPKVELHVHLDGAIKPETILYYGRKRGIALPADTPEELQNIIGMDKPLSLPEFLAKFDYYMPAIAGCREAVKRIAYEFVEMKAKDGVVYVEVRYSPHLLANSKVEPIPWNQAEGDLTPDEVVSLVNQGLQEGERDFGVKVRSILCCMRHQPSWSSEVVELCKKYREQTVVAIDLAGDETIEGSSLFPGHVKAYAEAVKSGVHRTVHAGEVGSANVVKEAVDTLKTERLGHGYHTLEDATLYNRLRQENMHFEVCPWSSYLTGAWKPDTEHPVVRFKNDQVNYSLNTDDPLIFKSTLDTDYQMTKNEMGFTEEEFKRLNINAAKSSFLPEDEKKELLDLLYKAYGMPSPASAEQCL
Description: Inhibition of bovine adenosine deaminase pre-incubated for 5 mins before adenosine addition. The conditions noted are these: read-out: Ki.

Series [1] can be described thus: Drug metabolism in mouse liver microsomes assessed as metabolic turnover rate per 0.125 mg/ml protein pre-incubated at 37 degC for 5 mins before NADPH addition and measured after 30 mins by LC/MS/MS method. It counts as ADME, microsome. The conditions noted are these: 0.5 h. In general terms: Liver microsomes are a subcellular fraction often used to study metabolism.

Series [2] is described as follows: Half life in mouse liver microsomes pre-incubated at 37 degC for 5 mins before NADPH addition and measured after 30 mins by LC/MS/MS method. It counts as ADME, microsome.
Series [3] is described as follows: Drug metabolism in rat liver microsomes assessed as metabolic turnover rate per 0.125 mg/ml protein pre-incubated at 37 degC for 5 mins before NADPH addition and measured after 30 mins by LC/MS/MS method. Format: ADME, microsome. The note with it: 0.5 h.
Series [4] in a line: Drug metabolism in human liver microsomes assessed as metabolic turnover rate per 0.125 mg/ml protein pre-incubated at 37 degC for 5 mins before NADPH addition and measured after 30 mins by LC/MS/MS method. Format: ADME, microsome. The conditions noted are these: 0.5 h.
A short description of series [5]: Half life in rat liver microsomes pre-incubated at 37 degC for 5 mins before NADPH addition and measured after 30 mins by LC/MS/MS method. Format: ADME, microsome.
The nature of series [6]: Half life in human liver microsomes pre-incubated at 37 degC for 5 mins before NADPH addition and measured after 30 mins by LC/MS/MS method. It counts as ADME, microsome.
A short description of series [7]: Drug metabolism in mouse liver microsomes assessed as drug recovery pre-incubated at 37 degC for 5 mins before NADPH addition and measured after 30 mins by LC/MS/MS method. Format: ADME, microsome. The note with it: read-out: Drug recovery.
Series [8] is described as follows: Drug metabolism in rat liver microsomes assessed as drug recovery pre-incubated at 37 degC for 5 mins before NADPH addition and measured after 30 mins by LC/MS/MS method. It counts as ADME, microsome. The conditions noted are these: read-out: Drug recovery.
A short description of series [9]: Drug metabolism in human liver microsomes assessed as drug recovery pre-incubated at 37 degC for 5 mins before NADPH addition and measured after 30 mins by LC/MS/MS method. Format: ADME, microsome. The note with it: read-out: Drug recovery.
A short description of series [10]: Drug metabolism in mouse liver microsomes assessed as drug recovery pre-incubated at 37 degC for 5 mins measured after 30 mins in absence of NADPH by LC/MS/MS method. It counts as ADME, microsome. The note with it: read-out: Drug recovery.
A short description of series [11]: Drug metabolism in rat liver microsomes assessed as drug recovery pre-incubated at 37 degC for 5 mins measured after 30 mins in absence of NADPH by LC/MS/MS method. The note with it: read-out: Drug recovery. It counts as ADME, microsome.
The nature of series [12]: Drug metabolism in human liver microsomes assessed as drug recovery pre-incubated at 37 degC for 5 mins measured after 30 mins in absence of NADPH by LC/MS/MS method. Format: ADME, microsome. The note with it: read-out: Drug recovery.

For orientation: Ki means a measure of affinity in units of concentration, obtained from inhibition or displacement. A word on the half-life: it is how long it takes for the measured level to halve. A high value points to slow loss. For the compound `C[C@H](O)[C@@H](CCc1cccc(-c2ccccn2)c1)n1cnc2c(N)ncnc21`, the Ki at Adenosine deaminase turned out to be 2.3 nM. Further, the values for the Drug metabolism in series [1], in series [3] and in series [4] were 0.15 nmol/min/mg, 0.12 nmol/min/mg and 0.06 nmol/min/mg, respectively. In addition, the half-life in [2], in [5] and in [6] was over 30 min each time. The remaining at 0.5 h in series [7] turned out to be 58%; in series [8], 64%; in [9], 82%; in [10], 100%; in [11], 100%; in series [12] it was 91%.
Consider `CCCCSC[C@H]([C@H](C)O)n1cnc2c(N)ncnc21`, for which, at Adenosine deaminase, the Ki was determined as 54 nM. Moreover, the Drug metabolism in series [1] is on record as under 0.04 nmol/min/mg; in series [3] it was 0.04 nmol/min/mg; in series [4], under 0.04 nmol/min/mg. Besides, the half-life in [2], in [5] and in [6] was over 30 min each time. The remaining at 0.5 h in series [7] was 100%; in [8], 86%; in series [9] it was 94%; in series [10], 94%; in series [11] it was 97%; in series [12] it was 85%.
`C[C@H](O)[C@@H](CCc1cccc(-c2cnccn2)c1)n1cnc2c(N)ncnc21`: the Ki at Adenosine deaminase is 1.9 nM. The Drug metabolism in [1] is reported as 0.16 nmol/min/mg; in series [3], under 0.04 nmol/min/mg; in series [4], 0.09 nmol/min/mg. The half-life in [2], in series [5] and in series [6] was over 30 min each time. For the same compound, the remaining at 0.5 h in series [7] was determined as 57%; in [8], 90%; in [9], 71%; in [10], 94%; in series [11], 85%; in [12] it was 94%.
Turning to `C[C@H](O)[C@@H](CCc1cccc(-c2nccs2)c1)n1cnc2c(N)ncnc21`, the Ki on Adenosine deaminase came to 2.6 nM. Moreover, the Drug metabolism was found to be 0.1 nmol/min/mg in [1], 0.09 nmol/min/mg in [3] and 0.05 nmol/min/mg in series [4]. Also, the half-life in [2], in series [5] and in series [6] was over 30 min in each case. Moreover, the remaining at 0.5 h in series [7] was 65%; in series [8], 76%; in series [9], 84%; in series [10] it was 92%; in [11], 91%; in [12] it was 100%.
Regarding `CNC(=O)c1cccc(CC[C@H]([C@H](C)O)n2cnc3c(N)ncnc32)c1`, on Adenosine deaminase, the Ki came out at 2.7 nM. Also, the Drug metabolism in series [1], in series [3] and in [4] was under 0.04 nmol/min/mg throughout. Also, the half-life in series [2], in series [5] and in series [6] was over 30 min each time. The remaining at 0.5 h is 100% in series [7]; 91% in [8]; 90% in series [9]; 96% in series [10]; 100% in series [11]; 92% in series [12].
`C[C@H](O)[C@@H](CSc1cccc(C(F)(F)F)c1)n1cnc2c(N)ncnc21`: the Ki on Adenosine deaminase is 25 nM. In addition, the results for the Drug metabolism in series [1], in series [3] and in [4] were 0.22 nmol/min/mg, 0.05 nmol/min/mg and 0.05 nmol/min/mg, respectively. The values for the half-life in [2], in [5] and in series [6] were 25 min, over 100 min and over 100 min, respectively. Further, the remaining at 0.5 h in series [7] is 43%; in series [8], 83%; in series [9], 83%; in [10], 100%; in [11], 100%; in [12] it was 89%.
